“Also recorded” adds a separate entry of the source. Bridge positions count the residues as written; N and C are the ends. Ends that are not written are not given here. Peptide text beside a SMILES is read from it. I, II: the chains in the order shown.
Experiments:
[1] = tested on: mouse vas deferens from NOP(+/+) mice; assay: Electrically stimulated mouse vas deferens bioassay, NOP(+/+) tissues; conditions: for potency (pEC50) for inhibition of electrically induced contractions / maximal inhibition of electrically induced contractions: mVD from CD-1 NOP(+/+) mice, 5 experiments; for potency (pEC50) for inhibition of electrically induced contractions: 33 °C, mean (CL95%); for maximal inhibition of electrically induced contractions: mean ± sem
Protocol: (§1) This study was approved by the Animal Welfare Body of the University of Ferrara and by the Italian Ministry of Health (authorization number CBCC2.N.BXI). Experiments were performed on an isolated mouse vas deferens. All experiments were conducted with mice bred and housed in the University of Ferrara’s animal facility under specific pathogen-free conditions (SPF). All mice were housed in cages with individual ventilation, with a constant temperature of 21 °C, 60% humidity, and a 12 h light/dark cycle. Food and water were provided ad libitum. CD-1 NOP(+/+) and CD-1 NOP(−/−) male mice, aged 9 to 12 months, were used. Animals were sacrificed on the day of the experiment with CO2 overdose. Bioassay experiments were performed as previously described. The tissues were suspended in 5 mL organ bath containing Krebs solution (NaCl 118.5 […]). The Krebs solution was oxygenated with 95% O2 and 5% CO2 and the temperature set at 33 °C with a resting tension of 0.3 g applied to the tissues. Tissues were stimulated through two platinum electrodes with a supramaximal rectangular pulse of 1 ms duration, 0.05 Hz frequency, and 80 V of amplitude. The electrically evoked contractions were measured isotonically by means of Basile strain gauge transducers (Basile, IT) and a recorder with a Power Lab 8 instrument (ADInstruments, CO, U.S.). Following an equilibration period of approximately 60 min, the contractions induced by electrical field stimulation were stable. At this time, cumulative concentration response curves were carried out.
(§2) Concentration-response curves to agonists were analyzed by a four-parameter logistic nonlinear regression model: Effect = baseline + (E max – baseline)/(1 + 10^((logEC50–log[ligand])slope)). […] Experimental data were expressed as mean ± sem of at least 5 experiments. Potency values were expressed as the mean and CL95%. In vitro E max values were analyzed by one-way ANOVA, while in vivo latency data were evaluated by one-way ANOVA followed by Dunnett’s post hoc test. The proportion of mice losing the righting reflex was compared by Fisher’s exact test performed on raw data. GraphPad Prism 10.0 software was used for all of the analyses. The terminology employed is consistent with the International Union of Basic and Clinical Pharmacology (IUPHAR) recommendations. ,

[2] = tested on: mouse vas deferens from NOP(−/−) mice; assay: Electrically stimulated mouse vas deferens bioassay, NOP(−/−) tissues; conditions: mVD from CD-1 NOP(−/−) mice; 5 experiments
Protocol: as §1
Concentration-response curves to agonists were analyzed by a four-parameter logistic nonlinear regression model: Effect = baseline + (E max – baseline)/(1 + 10^((logEC50–log[ligand])slope)). […] Experimental data were expressed as mean ± sem of at least 5 experiments. Potency values were expressed as the mean and CL95%. In vitro E max values were analyzed by one-way ANOVA, while in vivo latency data were evaluated by one-way ANOVA followed by Dunnett’s post hoc test. […]

[3] = tested on: loss of the righting reflex (RR) in mice; assay: Loss of the righting reflex assay in mice; assay type: in vivo, mouse; conditions: 10 nmol, icv
Protocol: All of the experimental procedures adopted in the in vivo studies comply with the European Directive 2010/63/EU on protecting animals used for scientific purposes and Italian Legislative Decree no. 26 of March 4, 2014. These experiments were approved by the Animal Welfare Body of the University of Ferrara and by the Ministry of Health (authorization number 677/2024-PR). In vivo studies have been reported following ARRIVE guidelines. All experiments were conducted with mice bred and housed in the University of Ferrara’s animal facility under specific pathogen-free conditions. All mice were housed in cages with individual ventilation, with a constant temperature of 21 °C, 60% humidity, and a 12 h light/dark cycle. Food and water were provided ad libitum. CD-1 male and female mice, aged 2 to 4 months, were used. Details about the generation of NOP(−/−) and NOP(+/+) mice have been published previously; , these mice have been backcrossed on CD-1 strain in our laboratories. NOP(+/+) and NOP(−/−) littermates were obtained by mating with NOP(±) mice. All mice were genotyped using the polymerase chain reaction previously described. All mice were used only once. The RR assay was performed as previously described. […] Diazepam 15 mg/kg was injected ip. When the animals lost RR, they were placed in a plastic cage, and the time was recorded by an expert observer, blind to drug treatments and/or genotype. Animals were judged to have regained the RR response when they could correct themselves three times within 30 s. Sleeping time is defined as the amount of time between the loss and regaining of the RR; it was rounded to the nearest minute.
as §2

[4] = biological target: murine NOP receptor (mouse (endogenous in mouse vas deferens)) (UniProt P35377)
sleep in rats = conditions: reported in the literature, ref not given; cited from earlier work
human NOP [5] = biological target: T1, human NOP (Homo sapiens, UniProt P41146); assay: Calcium mobilization assay, CHO cells with NOP receptor and chimeric G protein; assay type: cell-based; parameters: expressed in transfected cells; conditions: for EC50: CHO cells coexpressing human NOP and Gαqi5, Fluo-4, 37 °C, mean (CL95%), N = 5 experiments in duplicate, read-out: Ca^2+ mobilization pEC50 (CL95%) (converted); for Ca^2+ mobilization E max ± sem: CHO cells coexpressing human NOP and Gαqi5, maximum change in percentage over baseline fluorescence, mean ± sem, N = 5 in duplicate
Protocol: Chinese hamster ovary (CHO) cells stably coexpressing the human NOP, μ, or κ opioid receptors and the Gαqi5 protein or the human δ and the GαqG66Di5 protein were used in this assay. , Cells were cultured in DMEM/F-12 (1:1) medium supplemented with 10% FBS, 2 mM L-glutamine, […], 100 IU/mL penicillin, and 100 IU/mL streptomycin. Cells were maintained at 37 °C in a humidified atmosphere with 5% CO2 and were seeded at 50 000 cells/well into 96-well black, clear-bottom plates 24 h before test. Loading for 45 min with a solution consisting of HBSS supplemented with 2.5 mM probenecid, 3 μM Fluo-4 AM, and 0.01% pluronic acid ensures the calcium-sensitive dye (Fluo-4) reaches the needed concentration inside the cell, while the exchange of the solution with 100 μL/well of buffer consisting of HBSS with 20 mM HEPES, 2.5 mM probenecid, and 500 μM Brilliant Black allows for fluorescence background to decrease. Serial dilutions of ligands were prepared in HBSS buffer with 20 mM HEPES and 0.02% bovine serum albumin (BSA) to minimize the ligands’ stickiness to plasticware. The automated microplate reader FlexStation II (Molecular Devices, CA, US) was employed at 37 °C to detect changes in fluorescence intensity. The effects of all compounds were expressed as the maximum change in percentage over the baseline fluorescence measured in samples treated with vehicles.
as §2

human NOP [6] = biological target: T1, human NOP; assay: NOP receptor–G protein interaction BRET assay; assay type: biochemical; parameters: expressed in transfected cells; host or cells: membranes of HEK293 cells stably coexpressing NOP-RLuc and Gβ1-RGFP; conditions: N = 5 experiments in duplicate; for NOP–G protein interaction E max ± sem: effects normalized to N/OFQ-NH2 (E max = 1), mean ± sem; for EC50: membranes from HEK293 cells coexpressing NOP-RLuc and Gβ1-RGFP, room temperature, mean (CL95%), read-out: NOP–G protein interaction pEC50 (CL95%) (converted)
Protocol: A BRET interaction assay was used, as previously detailed in ref , to study the propensity of ligands to evoke interaction between the NOP receptor and to G protein. Membranes taken from HEK293 cells stably coexpressing the fusoproteins NOP-RLuc and Gβ1-RGFP were used. Such cells were grown in DMEM medium supplemented with 10% FBS, 2 mM L-glutamine, […] G418, […] hygromycin B, 100 IU/mL penicillin, and 100 IU/mL streptomycin in a humidified atmosphere with 5% CO2 at 37 °C. Cell membranes were thawed and resuspended in PBS supplemented with 0.01% BSA before the assay, and an amount of 3 μg of total protein was dispensed in each of the 96 wells together with 2 μM Prolume Purple Coelenterazine. All experiments were carried out at room temperature. Ligands were added, and averaged BRET ratios from 10 min measurements were computed. BRET ratios were computed as counts per second (CPS) obtained on a Victor Nivo (PerkinElmer) with 405 (10) nm and 510 (30) nm bandpass filters. Vehicles’ BRET ratios were derived from light passed through 510 divided by that passed through 405 filters. Vehicles BRET values were subtracted from all computations, and data sets were normalized as a fraction of N/OFQ maximal effects.
as §2

NOP-RLuc = NOP-RLuc (UniProt P41146)
[7] = biological target: human nociceptin/orphanin FQ (N/OFQ) peptide receptor (human) (UniProt P41146)
human nociceptin/orphanin FQ (N/OFQ) peptide receptor (human), sequence (P41146 whole entry): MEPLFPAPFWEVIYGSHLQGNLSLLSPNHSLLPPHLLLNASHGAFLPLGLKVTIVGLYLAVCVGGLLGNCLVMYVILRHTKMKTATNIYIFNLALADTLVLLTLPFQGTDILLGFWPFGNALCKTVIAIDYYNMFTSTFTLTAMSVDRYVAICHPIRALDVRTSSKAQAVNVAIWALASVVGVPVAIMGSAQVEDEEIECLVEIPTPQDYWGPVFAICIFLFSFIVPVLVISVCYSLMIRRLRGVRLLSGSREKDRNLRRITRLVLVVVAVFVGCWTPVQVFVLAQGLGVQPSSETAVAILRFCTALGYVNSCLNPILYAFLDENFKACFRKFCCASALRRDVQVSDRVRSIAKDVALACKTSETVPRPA

T1 sequence (P41146 whole entry): as above
murine NOP receptor (mouse (endogenous in mouse vas deferens)), sequence (P35377 whole entry): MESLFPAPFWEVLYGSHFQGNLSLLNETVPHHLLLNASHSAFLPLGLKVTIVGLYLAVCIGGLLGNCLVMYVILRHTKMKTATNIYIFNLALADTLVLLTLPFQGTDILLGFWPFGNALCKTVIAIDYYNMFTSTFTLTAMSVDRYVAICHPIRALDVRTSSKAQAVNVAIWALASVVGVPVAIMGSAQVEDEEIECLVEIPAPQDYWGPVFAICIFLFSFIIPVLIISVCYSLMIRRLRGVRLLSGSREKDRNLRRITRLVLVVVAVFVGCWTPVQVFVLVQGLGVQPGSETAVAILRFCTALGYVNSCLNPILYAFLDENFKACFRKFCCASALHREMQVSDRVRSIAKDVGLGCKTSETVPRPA
NOP-RLuc, sequence (P41146 whole entry): as the sequence (P41146 whole entry) above

nociceptin/orphanin FQ [N/OFQ]
potency (pEC50) for inhibition of electrically induced contractions [1]: 7.59 (7.41–7.77) | maximal inhibition of electrically induced contractions [1]: 71 ± 4% | kinetics of action in mVD (in words) ([1]; onset and reversibility upon washout): fully and rapidly reversible upon washout | effect in mVD tissues from NOP(−/−) mice (in words) [2]: completely inactive | mice that lost the RR, 10 nmol ([3]; CD-1 mice, N = 8–10 per group): fewer than half | duration of action on RR (in words) ([3]; mice that lost the RR): short-lasting action; also recorded: few minutes

[D-Pen^2,D-Pen^5]enkephalin [DPDPE]
potency (pEC50) for inhibition of electrically induced contractions [1]: 7.72 (7.45–7.99) | maximal inhibition of electrically induced contractions [1]: 86 ± 6% | effect in mVD tissues from NOP(−/−) mice (in words) [2]: superimposable

nociceptin/orphanin FQ (peptide)
maximal inhibition of electrically induced contractions of the mouse vas deferens, NOP(+/+) tissues [4]: 71% | potency (pEC50), inhibition of electrically induced contractions of the mouse vas deferens, NOP(+/+) tissues [4]: 7.59 pEC50

O=C(O)c1nc2ccccc2n([C@@H]2C[C@H]3CCC[C@@H](C2)N3C2C[C@H]3CCC[C@@H](C2)C3)c1=O (some centres unmarked) [Sunobinop]
induced sleep at EEG recordings (sleep in rats): 3 to 5 h

CC(C)C[C@H](NC(=O)[C@H](CCCCN)NC(=O)[C@H](CCCNC(=N)N)NC(=O)[C@H](C)NC(=O)[C@H](CO)NC(=O)[C@H](CCCCN)NC(=O)[C@H](CCCNC(=N)N)NC(=O)[C@H](C)NC(=O)CNC(=O)[C@@H](NC(=O)[C@H](Cc1ccccc1)NC(=O)CNC(=O)CNC(=O)[C@@H](N)Cc1ccccc1)[C@@H](C)O)C(=O)N[C@@H](C)C(=O)N[C@@H](CSSC[C@H](NC(=O)[C@H](C)NC(=O)[C@H](CC(C)C)NC(=O)[C@H](CCCCN)NC(=O)[C@H](CCCNC(=N)N)NC(=O)[C@H](C)NC(=O)[C@H](CO)NC(=O)[C@H](CCCCN)NC(=O)[C@H](CCCNC(=N)N)NC(=O)[C@H](C)NC(=O)CNC(=O)[C@@H](NC(=O)[C@H](Cc1ccccc1)NC(=O)CNC(=O)CNC(=O)[C@@H](N)Cc1ccccc1)[C@@H](C)O)C(=O)N[C@@H](CCC(N)=O)C(N)=O)C(=O)N[C@@H](CCC(N)=O)C(N)=O [1j, [[Cys^16]N/OFQ-NH2]2] (I: H-FGGFTGARKSARKLACQ-NH2 / II: H-FGGFTGARKSARKLACQ-NH2; disulfide I:16-II:16)
EC50 (human NOP [5]): 1.38 nM | Ca^2+ mobilization E max ± sem (human NOP [5]): 312 ± 38 % over the baseline | NOP–G protein interaction E max ± sem (human NOP [6]): 0.98 ± 0.02 | EC50 (human NOP [6]): 0.174 nM

CC(C)C[C@H](NC(=O)[C@H](CCCCN)NC(=O)[C@H](CSSC[C@H](NC(=O)[C@H](C)NC(=O)[C@H](CO)NC(=O)[C@H](CCCCN)NC(=O)[C@H](CCCNC(=N)N)NC(=O)[C@H](C)NC(=O)CNC(=O)[C@@H](NC(=O)[C@H](Cc1ccccc1)NC(=O)CNC(=O)CNC(=O)[C@@H](N)Cc1ccccc1)[C@@H](C)O)C(=O)N[C@@H](CCCCN)C(=O)N[C@@H](CC(C)C)C(=O)N[C@@H](C)C(=O)N[C@@H](CC(N)=O)C(=O)N[C@@H](CCC(N)=O)C(N)=O)NC(=O)[C@H](C)NC(=O)[C@H](CO)NC(=O)[C@H](CCCCN)NC(=O)[C@H](CCCNC(=N)N)NC(=O)[C@H](C)NC(=O)CNC(=O)[C@@H](NC(=O)[C@H](Cc1ccccc1)NC(=O)CNC(=O)CNC(=O)[C@@H](N)Cc1ccccc1)[C@@H](C)O)C(=O)N[C@@H](C)C(=O)N[C@@H](CC(N)=O)C(=O)N[C@@H](CCC(N)=O)C(N)=O [1f, [[Cys^12]N/OFQ-NH2]2] (I: H-FGGFTGARKSACKLANQ-NH2 / II: H-FGGFTGARKSACKLANQ-NH2; disulfide I:12-II:12)
EC50 (human NOP [5]): 3.02 nM | Ca^2+ mobilization E max ± sem (human NOP [5]): 346 ± 19 % over the baseline | NOP–G protein interaction E max ± sem (human NOP [6]): 1.07 ± 0.12 | EC50 (human NOP [6]): 1.26 nM

O=C1NCN(c2ccccc2)C12CCN([C@@H]1CC[C@H]3CCCc4cccc1c43)CC2 [Ro 64-6198]
induced sleep at EEG recordings (sleep in rats): 3 to 5 h

FGGFTGARKSARKCANQ-NH2 (also: homodimer: Cys14-Cys14 disulfide to second copy) [[[Cys^14]N/OFQ-NH2]2]
pEC50, NOP–G protein interaction (BRET, membranes of HEK293 cells with NOP-RLuc and Gβ1-RGFP) (NOP-RLuc): 9.91 pEC50 | E max, NOP–G protein interaction (BRET), normalised to N/OFQ-NH2 (E max = 1) (NOP-RLuc; scale: fraction of the maximal effect of N/OFQ-NH2): 0.8 | E max, Ca^2+ mobilization in CHO cells with human NOP and Gαqi5 (% over baseline) [7]: 241 | pEC50, Ca^2+ mobilization in CHO cells with human NOP and Gαqi5 [7]: 9.14 pEC50 | pEC50, inhibition of electrically induced contractions of the mouse vas deferens, NOP(+/+) tissues [4]: 6.79 pEC50

— article PMC12621184, “Synthesis and Pharmacological Characterization of Nociceptin/Orphanin FQ Dimeric Ligands” (Journal of Medicinal Chemistry, 2025)
